Reference: US20230203480A1, “LIPID NANOPARTICLE FORMULATIONS FOR CRISPR/CAS COMPONENTS” (Intellia Therapeutics, Inc., priority 2016, published 2023)

Assay: Pharmacokinetic profile of Lipid A in liver and plasma (LC/MS)
Format: in vivo, mouse
Conditions: mice, after LNP administration
Protocol: Three different guide sequences were separately formulated, according to Example 1, and injected into mice (n=3) to determine the pharmacokinetic profile of Lipid A. Levels of Lipid A in mouse liver and plasma were measured by LC/MS. […] Tmax in liver was achieved within 30 minutes of administration, whereas T112 in plasma and liver were achieved within approximately 5-6 hours of LNP administration.

Tmax (CD-1, mouse, liver, intravenous): ≤ 30 min | T112 in liver: 5 to 6 h | T112 in plasma: 5 to 6 h
SMILES: CCCCC/C=C\C/C=C\CCCCCCCC(=O)OCC(COC(=O)CCC(OCCCCCCCC)OCCCCCCCC)COC(=O)OCCCN(CC)CC (stereo not drawn) [Lipid A, (9Z,12Z)-3-((4,4-bis(octyloxy)butanoyl)oxy)-2-((((3-(diethylamino)propoxy)carbonyl)oxy)methyl)propyl octadeca-9,12-dienoate]
